Broadly, the pIC50 is the negative decadic logarithm of the IC50, by convention in mol/L.

pIC50: −log10 of the molar value.

Our source for the IC50 values is ChEMBL document CHEMBL1154273, “Synthesis and antimalarial activity of new atovaquone derivatives” (Eur J Med Chem, 2009).

The experiment has as its system Plasmodium falciparum. Description: Antimalarial activity against Plasmodium falciparum Nigerian assessed as [3H]hypoxanthine uptake after 48 hrs by liquid scintillation counting. The experiment is classed as functional, organism-based.
On to `CCCCCCCC(=O)OC1=C([C@H]2CC[C@H](c3ccc(Cl)cc3)CC2)C(=O)c2ccccc2C1=O`, for which the pIC50 is 8.82.
Under `O=C(Cc1ccc(F)cc1)OC1=C([C@H]2CC[C@H](c3ccc(Cl)cc3)CC2)C(=O)c2ccccc2C1=O` stands 8.76.
With `O=C(Cc1ccc(Cl)cc1)OC1=C([C@H]2CC[C@H](c3ccc(Cl)cc3)CC2)C(=O)c2ccccc2C1=O`, the pIC50 is 8.78.
Regarding `CC(=O)OC1=C([C@H]2CC[C@H](c3ccc(Cl)cc3)CC2)C(=O)c2ccccc2C1=O`, the pIC50 is 8.82.
Under `O=C1C(O)=C([C@H]2CC[C@H](c3ccc(Cl)cc3)CC2)C(=O)c2ccccc21` [ATOVAQUONE] stands 9.12; under `CCCCCCCCCCCCCCCCCCOC1=C([C@H]2CC[C@H](c3ccc(Cl)cc3)CC2)C(=O)c2ccccc2C1=O`, 7.49; under `O=C(/C=C/c1ccccc1)OC1=C([C@H]2CC[C@H](c3ccc(Cl)cc3)CC2)C(=O)c2ccccc2C1=O`, 8.84.
For `O=C(OC1=C([C@H]2CC[C@H](c3ccc(Cl)cc3)CC2)C(=O)c2ccccc2C1=O)c1ccccc1`, the pIC50 is 8.90.
With `O=C(OC1=C([C@H]2CC[C@H](c3ccc(Cl)cc3)CC2)C(=O)c2ccccc2C1=O)c1ccc(F)cc1`, the pIC50 was 8.80.
For `CCOC1=C([C@H]2CC[C@H](c3ccc(Cl)cc3)CC2)C(=O)c2ccccc2C1=O`, the pIC50 is 8.26.
Consider `CCCCCCCCCC(=O)OC1=C([C@H]2CC[C@H](c3ccc(Cl)cc3)CC2)C(=O)C(=O)c2ccccc21`, for which the pIC50 was less than 7.00.
Take `CCCCCCCCC(=O)OC1=C([C@H]2CC[C@H](c3ccc(Cl)cc3)CC2)C(=O)c2ccccc2C1=O`: the pIC50 was 8.51.
Under `CCCCCCCCCC(=O)OC1=C([C@H]2CC[C@H](c3ccc(Cl)cc3)CC2)C(=O)c2ccccc2C1=O` stands 8.72; under `C=C[C@H]1CN2CC[C@H]1C[C@H]2[C@H](O)c1ccnc2ccc(OC)cc12` [QUININE], 6.74.
For the molecule `CCCCCC(=O)OC1=C([C@H]2CC[C@H](c3ccc(Cl)cc3)CC2)C(=O)c2ccccc2C1=O`, the pIC50 is 8.90.
Take `O=C1C(OCc2ccccc2)=C([C@H]2CC[C@H](c3ccc(Cl)cc3)CC2)C(=O)c2ccccc21`: the pIC50 was 8.12.
Consider `CCCCCCCCCOC1=C([C@H]2CC[C@H](c3ccc(Cl)cc3)CC2)C(=O)c2ccccc2C1=O`, for which the pIC50 is 7.85.
`CCCCCCCCCCOC1=C([C@H]2CC[C@H](c3ccc(Cl)cc3)CC2)C(=O)c2ccccc2C1=O`: the pIC50 is 7.96.
Consider `CCCCCCOC1=C([C@H]2CC[C@H](c3ccc(Cl)cc3)CC2)C(=O)c2ccccc2C1=O`, for which the pIC50 was 7.87.
The result for `CCCCCCCCCCCCCCCCCC(=O)OC1=C([C@H]2CC[C@H](c3ccc(Cl)cc3)CC2)C(=O)c2ccccc2C1=O` reads 7.28.
